Earlier results in patent US20060150828A1, “Dried infant cereal compositions” (Beech-Nut Nutrition Corporation, priority 2005, published 2006).

Conditions: storage at 37° C., precooked whole wheat flour containing the iron salt

Substance | pentane formation (fat oxidation)
ferrous gluconate | rapidly generated pentane
ferrous sulfate | rapidly generated pentane
